From publication PMC7071076, “Antibacterial Activity and Pharmacokinetic Profile of a Promising Antibacterial Agent: 22-(2-Amino-phenylsulfanyl)-22-Deoxypleuromutilin” (Molecules, 2020)
In brackets after ≈: the same amount, converted by molar mass.

What was measured:
Test in all cases: MIC testing, clinical strain
Assay type in all cases: cell-based
Settings in all cases: Staphylococcus aureus
MRSA N20 = tested on: MRSA N20
Description: (§1) Methicillin-resistant Staphylococcus aureus (MRSA) ATCC 43300, Staphylococcus aureus ATCC 29213, Escherichia coli ATCC 25922, Salmonella typhimurium ATCC 14028, Enterococcus faecalis ATCC 29212, and Enterococcus faecium ATCC 35667 were obtained from the China Institute of Veterinary Drug Control (Beijing, China). Five clinical strains of MRSA (N7, N9, N20, N30, and N54) were isolated from diseased pig tissues of South China Agricultural University and Foshan University Animal Hospital. All clinical strains were identified as MRSA by Gram stain, catalase reaction, coagulase test, staphylococcus API identification system test, MecA gene test, and methicillin MIC test.
(§2) The MIC of amphenmulin against MRSA, Escherichia coli, Salmonella typhimurium, Enterococcus faecalis, and Enterococcus faecium were determined using tiamulin as controls. MIC values were measured by the method of previous work. Staphylococcus aureus ATCC 29213 was used as the quality control bacteria, and the quality control range was referred to the Clinical and Laboratory Standards Institute (CLSI). The bacteria solution was diluted to ~10^6 CFU/mL with Mueller–Hinton (MH) broth for MRSA, Escherichia coli and Salmonella typhimurium while Trypticase Soy Broth for Enterococcus faecalis and Enterococcus faecium. Drugs were dissolved in an aqueous solution of N, N-dimethylformamide (DMF) at a concentration of 2560 µg/mL, and then diluted with broth to prepare working solution (1280 µg/mL). The drug susceptibility testing was performed in 96-well plate. A total of 20 µL of working solution was added into column 1 and well mixed as a 10-fold dilution, following which Serial 2-fold dilutions were prepared to provide concentration ranges of 128–0.0078 µg/mL. Blank broth (no cultures) and bacteria solution (drugs replaced by blank solvent) were set as drug-free controls. Each 96-well plate was cultured at 37 °C for 24 h. The MIC value is the lowest concentration of amphenmulin which inhibits the visible growth of bacteria. The experiment was repeated three times.

MRSA N30 = tested on: MRSA N30
Description: as §1, §2

MRSA N54 = tested on: MRSA N54
Description: as §1, §2

MRSA N7 = tested on: MRSA N7
Description: as §1, §2

MRSA N9 = tested on: MRSA N9
Description: as §1, §2

Work on C=C[C@]1(C)C[C@@H](OC(=O)CSc2ccccc2N)[C@]2(C)[C@H](C)CC[C@]3(CCC(=O)[C@H]32)[C@@H](C)[C@@H]1O [Amphenmulin, 22-(2-amino-phenylsulfanyl)-22-deoxypleuromutilin] yielded an MIC (MRSA N20) of 4 µg/mL (≈ 8.24 µM), an MIC (MRSA N30) of 8 µg/mL (≈ 16.5 µM) and an MIC (MRSA N54) of 0.0156 µg/mL (≈ 0.0321 µM). It also gave an MIC (MRSA N7) of 4 µg/mL (≈ 8.24 µM) and an MIC (MRSA N9) of 0.0156 µg/mL (≈ 0.0321 µM).
